Like-named read-outs stand apart in the source and are kept apart here.
Assays:
[1] = system: Plasmodium falciparum 3D7 (chloroquine-sensitive); assay: Antimalarial assay (IC50 determination), asexual blood stage, SYBR green; format: cell-based; settings: for IC50: P. falciparum 3D7, 72 h exposure, read-out: IC50; for antimalarial activity (in words): P. falciparum 3D7, highest tested concentration 25 µM
Experimental: (§1) Parasite lines used in the study were P. falciparum 3D7 (Pf3D7 Chloroquine-sensitive) and Plasmodium falciparum K1 (PfK1 Chloroquine-resistant) sourced from the Malaria Research and Reference Reagent Resource Center (MR4), ATCC, Manassas, VA, USA. FNDR-10132 was tested against a cross-resistance panel at Swiss TPH, Allschwil, Switzerland.
As per the modified protocol stated by Trager and Jensen, 1976, Plasmodium falciparum parasite lines (Pf3D7 and PfK1) were cultured. Plasmodium strains were maintained in RPMI-1640 medium at 3–5% hematocrit supplemented with 0.2% w/v glucose, 0.5% w/v AlbuMaxII, 0.2% w/v NaHCO3, and 30 μg/mL gentamycin, and, additionally, 15 μM hypoxanthine was added and incubated at 37 °C with 5% O2, 5% CO2, and 90% N2. After 24 h, the medium was changed. After attaining high parasitemia (6–8% mature stage parasite), the culture was sub-passaged with fresh human RBCs.
All tested compounds were dissolved in a DMSO solvent and a prepared stock solution of 10 mM. The reference drug, Chloroquine diphosphate, was dissolved in CRPMI. Working solutions were made from stock solution after diluting in a CRPMI medium during the experiment. The maximum concentration of DMSO used in this study was <1%. It had no parasiticidal effect.
The P. falciparum (0.8–1% parasitemia and 1% hematocrit) synchronous culture was exposed for 72 h (at 37 °C, 5% O2, 5% CO2, and 90% N2) to the serially diluted compound in 96-well plates. A total of 100 µL of RBCs lytic buffer (5 mM EDTA, 20 mM Tris pH 7.5, 0.08% Triton X-100, and 0.008% Saponin) containing the SYBR green 1-X final concentration was distributed to each well and incubated for one hour at room temp in the dark. The plates were read under a fluorescence reader at an excitation of 485 ± 20 nm and emission of 535 ± 25 nm. The IC50 values were calculated based on the DNA content of the parasite relative to its control. An inhibitory concentration of 50% (IC50) was determined using the MS-EXEL template.

[2] = Microsomal stability assay; format: in vitro ADME, mouse; settings: at 60 min, 1 µM, ß-NADPH, 37 °C
Experimental: Dipotassium hydrogen phosphate, Potassium dihydrogen phosphate, and formic acid were obtained from Merck, Rahway, NJ, USA. Methanol–acetonitrile was procured from Biosolve Chimie, Dieuze, France. Mouse liver microsomes, 20 mg/mL, were received from a third-party vendor in India. Imipramine HCl (catalog no. I0971) and Carbamazepine (catalog no. O0363) were procured from TCI, Gurugram, India. ß-NADPH (product code-99197) was procured from Sisco Research Laboratories, Mumbai, India.
The in vitro metabolic stability was determined in mouse liver microsomes. To prepare a mouse liver microsomes (MLM) homogenate, 100 µL of microsomes was resuspended in 100 mM phosphate buffer (0.607 g K2HPO4 and 0.212 g KH2PO4 dissolved in 50 mL of de-ionized water), achieving a working concentration of 0.625 mg/mL. Positive control (Imipramine) and test compounds (FNDR-10132, 10136, 10139, and 10999) were spiked individually into the MLM homogenate at a final concentration of 1 µm. To pre-incubate, they were placed in a water bath at 37 °C for 5 min. At least 30 µL was collected in triplicates (0 min samples), and the reaction was quenched using 90 µL of acetonitrile, which contained 500 ng/mL of Carbamazepine as an internal standard. Nicotinamide Adenine Dinucleotide Phosphate (NADPH) in phosphate buffer was added to the remaining MLM at a 1 mM final concentration and further incubated at 37 °C. At the indicated time intervals, 30 µL aliquots were sampled in triplicates, and the reaction was quenched with acetonitrile containing Carbamazepine as the internal standard. The samples were centrifugated for 10 min at 13,000 rpm, and the supernatant was separated for further analysis.
The analytical method for microsomal stability and protein binding assay is as follows: Chromatographic elution was achieved following isocratic flow on an X-Terra MS C18 50 × 4.6 mm, 2.5 µm, Waters, USA, maintained at 40 °C. The mobile phase contained aqueous 0.1% formic acid in water in solvent A and acetonitrile acidified with 0.1% formic acid in solvent B delivered at 0.300 mL/min. The flow was 15% from solvent A and 85% from solvent B for 4.5 min. A total of 7 μL of the sample was injected for the assay. […] Detection was performed through multiple reaction monitoring (MRM). The ion transitions are as follows: Imipramine, FNDR-10132, FNDR-10136, FNDR-10139, FNDR-10999, and IS at m/z 281.1→86.0, 355.2→115.1, 354.0→298.0, 350.0→186.1, 349→305.2, and m/z 237.0→194.0, respectively. An optimized cone voltage and collision energy were used to ionize the compounds. The MS parameters follow as follows: cone gas flow 50 (L/h); ion source temperature 150 °C; desolvation gas flow 900 (L/h); desolvation temperature 400 °C; and collision gas flow 0.10 (mL/min).

Dd2 DSM265 (Pfdhodh) = assay: Cross-resistance panel, Dd2 DSM265; format: cell-based, Plasmodium falciparum
Experimental: as §1

Dd2 (wt) = assay: Cross-resistance panel, Dd2 wt; format: cell-based, Plasmodium falciparum; settings: strain Dd2 wt
Experimental: as §1

[3] = system: Dd2 DDD107498 (PfeEF2 Y186N); assay: Cross-resistance panel, Dd2 DDD107498; format: cell-based, Plasmodium falciparum
Experimental: as §1

[4] = system: Dd2 390048 (Pfpi4k S743T); assay: Cross-resistance panel, Dd2 390048; format: cell-based, Plasmodium falciparum
Experimental: as §1

[5] = system: Dd2 GNF156 (Pfcarl Ile1139Lys); assay: Cross-resistance panel, Dd2 GNF156; format: cell-based, Plasmodium falciparum
Experimental: as §1

[6] = system: Dd2 ELQ300 (PfcytB Ile22Leu); assay: Cross-resistance panel, Dd2 ELQ300; format: cell-based, Plasmodium falciparum
Experimental: as §1

[7] = Plasmodium falciparum, 3D7, 72 h

Q: Which IC50 [1, 7] does the source give for CCCCCCCCCCCc1cc(=O)c2c(O)c(O)c(O)cc2o1 [FNDR-10142] here?
A: 0.4 µM

Q: Which results are given for O=c1cc(-c2ccc(N3CCCCC3)cc2)oc2cc(O)c(O)c(O)c12 [FNDR-10136]?
A: IC50 [1, 7]: 0.1 µM; Microsomal Stability (Mouse) [2]: ~19.05 ± 1.26%

Q: With COc1cccc(CCC(=O)NCc2cc(=O)c3c(O)c(O)c(O)cc3o2)c1 [FNDR-10146] as the molecule, how does the IC50 [1, 7] read?
A: 2.93 µM

Q: Which results are given for Cc1cc(Nc2ccc(S(F)(F)(F)(F)F)cc2)n2nc(C(C)(F)F)nc2n1 [DSM265, reference compound]?
A: IC50 (Dd2 DSM265 (Pfdhodh); Plasmodium falciparum): 0.15 µM; Fold shift IC50 rel. Dd2 (Dd2 DSM265 (Pfdhodh); strain Dd2 DSM265): 24; IC50 (Dd2 (wt); Plasmodium falciparum): 0.00623 µM; Fold shift IC50 rel. Dd2 (Dd2 (wt)): 1.0

Q: Which IC50 ([3]; Plasmodium falciparum, DD2) does the source give for O=C(NCCN1CCCC1)c1cc(-c2ccc(CN3CCOCC3)cc2)nc2ccc(F)cc12 [DDD107498, reference compound] here?
A: 1.86 µM

Q: And the “Fold shift IC50 rel. Dd2” value ([3]; strain Dd2 DDD107498)?
A: 7247

Q: And the IC50 (Dd2 (wt); Plasmodium falciparum)?
A: 0.000257 µM

Q: And the “Fold shift IC50 rel. Dd2” value (Dd2 (wt))?
A: 1.0

Q: For O=c1cc(-c2ccc(N3CCOCC3)cc2)oc2cc(O)c(O)c(O)c12 [FNDR-10133], which IC50 [1, 7] is on record?
A: 1.29 µM

Q: With CCCCOc1ccc(-c2cc(=O)c3ccc(C(=O)O)cc3o2)cc1 [FNDR-11013] as the molecule, how does the “antimalarial activity (in words)” value [1] read?
A: inactive

Q: And the IC50 [1, 7]?
A: > 25 µM

Q: Which IC50 [1, 7] does the source give for O=c1cc(-c2ccccc2)oc2cc(O)c(O)c(O)c12 [baicalein] here?
A: 32 µM

Q: Which IC50 [1, 7] does the source give for O=C(CCCCCc1ccccc1)NCc1cc(=O)c2c(O)c(O)c(O)cc2o1 [FNDR-10149] here?
A: 2.74 µM

Q: What does the source list for O=C(O)c1ccc2oc(-c3ccccc3)cc(=O)c2c1 [FNDR-10130]?
A: antimalarial activity (in words) [1]: no activity; IC50 [1, 7]: > 25 µM

Q: For O=C(O)c1ccc2c(=O)cc(-c3ccc(N4CCCCC4)cc3)oc2c1 [FNDR-11003], which “antimalarial activity (in words)” value [1] is on record?
A: inactive

Q: What about the IC50 [1, 7] of the same molecule?
A: > 25 µM

Q: For CS(=O)(=O)c1ccc(-c2cnc(N)c(-c3ccc(C(F)(F)F)nc3)c2)cc1 [MMV390048, reference compound], which IC50 ([4]; Plasmodium falciparum, DD2) is on record?
A: 0.0908 µM

Q: And the “Fold shift IC50 rel. Dd2” value ([4]; strain Dd2 390048)?
A: 4.9

Q: What about the IC50 (Dd2 (wt); Plasmodium falciparum) of the same molecule?
A: 0.0185 µM

Q: What about the “Fold shift IC50 rel. Dd2” value (Dd2 (wt)) of the same molecule?
A: 1.0

Q: Which results are given for O=C(O)c1ccc2oc(-c3ccc(C4CCCCC4)cc3)cc(=O)c2c1 [FNDR-10999]?
A: IC50 [1]: 10.1 µM; IC50 [1, 7]: ~10 µM; Microsomal Stability (Mouse) [2]: ~32.19 ± 0.29%

Q: Which IC50 [1, 7] does the source give for O=C(O)c1ccc2oc(-c3ccc(N4CCOCC4)cc3)cc(=O)c2c1 [FNDR-10138] here?
A: 9.65 µM

Q: What does the source list for CC1(C)c2nc(-c3ccc(F)cc3)c(Nc3ccc(F)cc3)n2CCN1C(=O)CN [GNF156, reference compound]?
A: IC50 ([5]; Plasmodium falciparum, DD2): 2.16 µM; Fold shift IC50 rel. Dd2 ([5]; strain Dd2 GNF156): 237; IC50 (Dd2 (wt); Plasmodium falciparum): 0.00912 µM; Fold shift IC50 rel. Dd2 (Dd2 (wt)): 1.0

Q: With COc1cc2[nH]c(C)c(-c3ccc(Oc4ccc(OC(F)(F)F)cc4)cc3)c(=O)c2cc1Cl [ELQ300, reference compound] as the molecule, how does the “Fold shift IC50 rel. Dd2” value ([6]; strain Dd2 ELQ300) read?
A: 9.7

Q: And the IC50 ([6]; strain Dd2 ELQ300, PfcytB Ile22Leu, read-out: IC50)?
A: 0.0597 µM

Q: What about the “Fold shift IC50 rel. Dd2” value (Dd2 (wt)) of the same molecule?
A: 1.0

Q: What about the IC50 (Dd2 (wt)) of the same molecule?
A: 0.00614 µM

Q: What does the source list for O=C(O)c1ccc2c(=O)cc(-c3ccc(C4CCCCC4)cc3)oc2c1 [FNDR-11012]?
A: antimalarial activity (in words) [1]: inactive; IC50 [1, 7]: > 25 µM

Q: With CS(=O)(=O)CCCOc1ccc(-c2cc(=O)c3cc(C(=O)O)ccc3o2)cc1 [FNDR-11096] as the molecule, how does the “antimalarial activity (in words)” value [1] read?
A: none of the compounds were active

Q: And the IC50 [1, 7]?
A: > 25 µM

Q: Which IC50 [1, 7] does the source give for CCCCCCc1ccc(-c2cc(=O)c3cc(C(=O)O)ccc3o2)cc1 [FNDR-11009] here?
A: 10.4 µM

Q: Which IC50 [1, 7] does the source give for O=C(O)c1ccc2oc(-c3ccc(-c4ccccc4)cc3)cc(=O)c2c1 [FNDR-10137] here?
A: 13.2 µM

Q: What does the source list for CCCCOc1ccc(-c2cc(=O)c3cc(C(=O)O)ccc3o2)cc1 [FNDR-11000]?
A: antimalarial activity (in words) [1]: none of the compounds were active; IC50 [1, 7]: > 25 µM

Q: With CCN(CC)c1ccc(-c2cc(=O)c3cc(C(=O)O)ccc3o2)cc1 [FNDR-11001] as the molecule, how does the IC50 [1] read?
A: 10.2 µM

Q: What about the IC50 [1, 7] of the same molecule?
A: ~10 µM

Q: Which IC50 [1, 7] does the source give for O=C(CCCc1ccccc1)NCc1cc(=O)c2c(O)c(O)c(O)cc2o1 [FNDR-10143] here?
A: 2.48 µM

Q: Which IC50 [1, 7] does the source give for O=c1cc(-c2ccc(-c3ccccc3)cc2)oc2cc(O)c(O)c(O)c12 [FNDR-10131] here?
A: 0.22 µM

Q: Which IC50 [1, 7] does the source give for O=C(NCc1cc(=O)c2c(O)c(O)c(O)cc2o1)c1ccc2ccc(Br)cc2c1 [FNDR-10150] here?
A: 1.12 µM

Q: For O=C(O)c1ccc2oc(-c3ccc(N4CCCCC4)cc3)cc(=O)c2c1 [FNDR-10139], which IC50 [1, 7] is on record?
A: 4.06 µM

Q: What about the “Microsomal Stability (Mouse)” value [2] of the same molecule?
A: ~29.92 ± 5.46%

Q: With CCN(CC)c1ccc(-c2cc(=O)c3ccc(C(=O)O)cc3o2)cc1 [FNDR-11014] as the molecule, how does the “antimalarial activity (in words)” value [1] read?
A: inactive

Q: And the IC50 [1, 7]?
A: > 25 µM

Q: Which IC50 [1] does the source give for CCCCOc1ccc(C(=O)NCc2cc(=O)c3c(O)c(O)c(O)cc3o2)cc1 [FNDR-10148] here?
A: 0.92 µM

Q: What about the IC50 [1, 7] of the same molecule?
A: 0.9 µM

From article PMC10610289, “Novel Baicalein-Derived Inhibitors of Plasmodium falciparum” (Pathogens, 2023)
